The target of one assay is ErbB2 kinase (Homo sapiens, UniProt P04626). The experiment in a line: Enzymatic experiment on ErbB2 (HTRF kinEASE-TK). Type of assay: biochemical. The following applies: ATP 4 μM; read-out: Kinase IC50 (nM) in vitro ErbB2. As for the experimental part:
(§1) Enzymatic Experiment on EGFR/ErbB2
(§2) Firstly, preparing 1× reaction buffer required for the kinase, 5× Enzymatic buffer (HEPES 20 mM pH7.0, NaN3 0.1%, BSA 0.05%, sodium orthovanadate 0.5 mM) in the HTRF kinEASE-TK kit was diluted to 1 time with deionized water, 50 nM Supplement Enzymatic buffer (SEB reagent), 1 mM MnCl2, 5 mM MgCl2 and 1 mM DTT were added. Secondly, preparing 5× compound, 10 mM test compound stock solution was diluted in multiple steps with DMSO in a 96-well compound plate to prepare 100× compound as initial concentration, which was then used as the first concentration to perform a 3-fold gradient dilution with DMSO to obtain 10 concentrations. Afterwards, 1 μl gradient dilution was added to 19 μl 1× reaction buffer to prepare 5× compound for use. Then 2 μl 5× compound was transferred from the 96 well plate into a 384-well plate. To the compound-free control wells was added with 2 μl the following liquid: 19 μl 1× reaction buffer with addition of 1 μl DMSO. To the blank control wells was added 2 μl 250 mM EDTA. The third step was enzymatic reaction, the kinase, substrate (TK Substrate-biotin) and ATP were formulated into 2.5× enzyme/substrate mixture and 2.5×ATP solution using 1× reaction buffer respectively. The final concentration of ErbB2 kinase was 0.06 ng/μl, the final concentration of ATP was 4 μM; the final concentration of EGFR kinase was 0.06 units/μl, the final concentration of ATP was 1.65 μM; 4 μl 2.5× enzyme/substrate mixture was added to a 384-well plate, which was incubated at room temperature for 5 minutes; 4 μl 2.5×ATP solution was added to each well and the mixture was allowed to react for 30 minutes at room temperature. The fourth step was termination of the reaction, HTRF Detection buffer was used to prepare a mixture of 2×TK Antibody-Eu(K) and Sa-XL665, the amount of TK Antibody-Eu(K) was 5 μl per well. After the enzymatic reaction was performed for 30 minutes, 10 μl of the above liquid was added to the 384-well plate and the mixture was allowed to react at room temperature for 1 hour. The data was measured on EnVision™, the laser of 337 nm wavelength was selected as the excitation light, RFU665 nM and RFU620 nM were measured, and […]/RFU620 nM×10000 was used as the final data for analysis.

A further assay addresses EGFR kinase (Homo sapiens, UniProt P00533). As to the kind of experiment: Enzymatic experiment on EGFR (HTRF kinEASE-TK). The class given is biochemical. The following applies: ATP 1.65 μM; read-out: Kinase IC50 (nM) in vitro EGFR. Here is the method:
as §1, §2

The subject of a further assay is N87. As to the kind of experiment: Proliferation inhibition assay in vitro, N87 (CellTiter-Glo). The following applies: Homo sapiens; 72 hours; read-out: IC50(nM) cell N87. The class given is cell-based. Here is the method: (§3) Proliferation Inhibition Assay In Vitro of Cell Lines
(§4) 1. Cell culture and inoculation: on the first day of the experiment, normal cultured cells were taken in the exponential growth phase, the cells were dispersed by digesting, then the cell density was adjusted to 8.8×10^4 cells/mL for BT-474 and 6.6×10^4 cells/mL for N87, 90 μl of which were inoculated to each well in a 96-well cell culture plate; after inoculation, the microplate was placed at condition of 37° C., 5% CO2 overnight. 2. Dosing to cells: on the second day of the experiment, the microplate was taken out from incubator, […], of 10× compound was separately added to each well of the microplate, 2 duplicated wells were set for each concentration, 9 dosing concentrations were set for each compound. According to different cell lines, the initial concentration of each compound was different. Upon completion of addition, the microplate was placed at condition of 37° C., 5% CO2 for 72 hours. 3. Data acquisition: the microplate was taken out from the incubator and allowed to stand at room temperature to equilibrate for 30 minutes. 100 μl CellTiter-Glo® Luminescent Cell Viability Assay reaction solution which had been equilibrated at room temperature was added to each well and the microplate was shaken at 1300 rpm for 2 minutes at room temperature. The microplate was centrifuged at 2000 rpm for 1 minute in a HERAEUS Multifuge X1R and then allowed to equilibrate at room temperature for 10 minutes. The […] signal was measured on EnVision™.
A general note: Cellular ATP, detected with luciferase, serves as a proxy for viable cell number.

In a further assay the test system is BT-474. As to the kind of experiment: Proliferation inhibition assay in vitro, BT-474 (CellTiter-Glo). The class given is cell-based. The following applies: Homo sapiens, 72 hours, read-out: IC50(nM) cell BT-474. Here is the method:
as §3, §4

Sequence of ErbB2 kinase (P04626 23-1255): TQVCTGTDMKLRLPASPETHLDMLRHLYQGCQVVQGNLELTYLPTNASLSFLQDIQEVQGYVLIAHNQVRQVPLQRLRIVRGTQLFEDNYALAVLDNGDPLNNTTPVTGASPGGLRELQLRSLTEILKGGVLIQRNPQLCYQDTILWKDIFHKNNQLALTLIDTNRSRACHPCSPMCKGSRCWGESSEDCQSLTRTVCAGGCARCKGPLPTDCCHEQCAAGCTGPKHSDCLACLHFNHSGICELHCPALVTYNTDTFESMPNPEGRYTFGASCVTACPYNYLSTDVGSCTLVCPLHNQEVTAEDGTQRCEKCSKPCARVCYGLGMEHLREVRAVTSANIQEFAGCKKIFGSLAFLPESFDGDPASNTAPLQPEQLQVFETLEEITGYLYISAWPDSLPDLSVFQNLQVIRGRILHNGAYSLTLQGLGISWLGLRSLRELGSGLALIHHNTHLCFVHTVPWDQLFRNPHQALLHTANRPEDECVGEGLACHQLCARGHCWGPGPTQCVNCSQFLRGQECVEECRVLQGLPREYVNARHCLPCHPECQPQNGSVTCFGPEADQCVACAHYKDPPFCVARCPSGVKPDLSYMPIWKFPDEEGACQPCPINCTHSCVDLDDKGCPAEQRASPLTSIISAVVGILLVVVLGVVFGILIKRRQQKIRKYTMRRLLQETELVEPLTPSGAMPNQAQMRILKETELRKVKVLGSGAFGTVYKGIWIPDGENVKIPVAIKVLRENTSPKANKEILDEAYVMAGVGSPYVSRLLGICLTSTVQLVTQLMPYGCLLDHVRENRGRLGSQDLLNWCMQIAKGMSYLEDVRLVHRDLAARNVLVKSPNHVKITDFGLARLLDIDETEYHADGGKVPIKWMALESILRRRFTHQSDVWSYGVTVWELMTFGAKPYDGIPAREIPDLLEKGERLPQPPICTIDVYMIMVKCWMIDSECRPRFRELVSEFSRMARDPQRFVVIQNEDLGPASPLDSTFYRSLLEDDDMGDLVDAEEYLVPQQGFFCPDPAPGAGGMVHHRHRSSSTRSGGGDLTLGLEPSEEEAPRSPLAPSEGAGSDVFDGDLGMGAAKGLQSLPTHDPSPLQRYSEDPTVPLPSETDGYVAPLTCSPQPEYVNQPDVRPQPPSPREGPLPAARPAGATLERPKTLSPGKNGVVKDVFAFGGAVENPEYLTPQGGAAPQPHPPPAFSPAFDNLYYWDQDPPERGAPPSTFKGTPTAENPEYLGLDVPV
Sequence of EGFR kinase (P00533 25-1210): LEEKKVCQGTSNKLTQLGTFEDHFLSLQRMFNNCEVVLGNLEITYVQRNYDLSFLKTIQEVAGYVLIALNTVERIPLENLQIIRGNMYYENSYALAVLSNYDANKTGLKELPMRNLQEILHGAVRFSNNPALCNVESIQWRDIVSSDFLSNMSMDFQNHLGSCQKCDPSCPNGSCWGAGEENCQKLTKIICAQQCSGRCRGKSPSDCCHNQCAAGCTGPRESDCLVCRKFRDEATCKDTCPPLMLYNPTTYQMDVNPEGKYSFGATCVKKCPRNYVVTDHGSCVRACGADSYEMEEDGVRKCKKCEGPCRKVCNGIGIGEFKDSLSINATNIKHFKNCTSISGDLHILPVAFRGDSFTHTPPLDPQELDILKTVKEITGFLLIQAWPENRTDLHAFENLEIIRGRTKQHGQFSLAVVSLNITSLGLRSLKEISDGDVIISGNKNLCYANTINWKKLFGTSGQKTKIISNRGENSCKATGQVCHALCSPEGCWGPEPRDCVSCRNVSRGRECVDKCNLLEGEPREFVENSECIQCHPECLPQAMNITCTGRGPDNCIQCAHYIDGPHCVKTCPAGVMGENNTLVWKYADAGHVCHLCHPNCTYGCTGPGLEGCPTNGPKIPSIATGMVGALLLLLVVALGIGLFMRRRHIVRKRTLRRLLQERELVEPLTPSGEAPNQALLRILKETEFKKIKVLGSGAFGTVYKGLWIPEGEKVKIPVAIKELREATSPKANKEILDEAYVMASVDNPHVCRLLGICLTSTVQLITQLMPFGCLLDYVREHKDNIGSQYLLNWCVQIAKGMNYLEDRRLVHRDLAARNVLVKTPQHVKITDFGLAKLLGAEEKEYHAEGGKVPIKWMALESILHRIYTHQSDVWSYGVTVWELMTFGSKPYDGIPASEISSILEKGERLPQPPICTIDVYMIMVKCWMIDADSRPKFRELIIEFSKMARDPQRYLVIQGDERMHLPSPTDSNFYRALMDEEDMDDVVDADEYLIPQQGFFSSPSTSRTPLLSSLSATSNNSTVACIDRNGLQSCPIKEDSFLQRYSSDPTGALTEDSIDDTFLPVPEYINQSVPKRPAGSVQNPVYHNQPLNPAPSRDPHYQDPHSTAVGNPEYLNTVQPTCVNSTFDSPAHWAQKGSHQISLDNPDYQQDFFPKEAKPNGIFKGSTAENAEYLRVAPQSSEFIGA

Turning to `Cc1cc(Nc2ncnc3ccc(NC4=NC(C)(C)CO4)cc23)ccc1Oc1cc2nccn2cn1` [Embodiment 3, N^6-(4,4-dimethyl-4,5-dihydrooxazol-2-yl)-N^4-(4-(imidazo[1,2-c]pyrimidin-7-yloxy)-3-methylphenyl)quinazoline-4,6-diamine], the IC50 (commonly the concentration that gives 50% inhibition) on ErbB2 kinase was determined as 1.1 nM; at EGFR kinase, 18.7 nM; in the assay with N87 it was 48.7 nM; with BT-474 it was 38.5 nM.
On to `Cc1cc(Nc2ncnc3ccc(Br)cc23)ccc1Oc1cc2nncn2cn1` [Embodiment 5, N-(4-([1,2,4]triazolo[4,3-c]pyrimidin-7-yloxy)-3-methylphenyl)-6-bromoquinazolin-4-amine], for which the IC50 was found to be 12.9 nM on ErbB2 kinase, 703 nM at EGFR kinase, 313 nM in the assay on N87 and 460 nM in the assay on BT-474.
In the same order, the values of `Cc1cc(Nc2ncnc3ccc(NC4=N[C@H](C)CO4)cc23)ccc1Oc1cc2nncn2cn1` [Embodiment 7, (R)—N^4-(4-([1,2,4]triazolo[4,3-c]pyrimidin-7-yloxy)-3-methylphenyl)-N^6-(4-methyl-4,5-dihydrooxazol-2-yl)quinazoline-4,6-diamine] are 8.1 nM, 164 nM, 71 nM and 45 nM.
`Cc1cc(Nc2ncnc3ccc(NC4=N[C@@H](C)CO4)cc23)ccc1Oc1cc2nncn2cn1` [Embodiment 8]: the IC50 at ErbB2 kinase stood at 7.8 nM; at EGFR kinase, 115 nM; in the assay on N87 it was 68.7 nM; in the assay with BT-474 it was 43.4 nM.
For `Cc1cc(Nc2ncnc3ccc(NC4=NC(C)(C)CS4)cc23)ccc1Oc1cc2nncn2cn1` [Embodiment 9, N^4-(4-([1,2,4]triazolo[4,3-c]pyrimidin-7-yloxy)-3-methylphenyl)-N^6-(4,4-dimethyl-4,5-dihydrothiazol-2-yl)quinazoline-4,6-diamine], the IC50 on ErbB2 kinase was 7.4 nM; at EGFR kinase, 35.9 nM; with N87, 39.5 nM; in the assay with BT-474, 33.4 nM.
Consider `Cc1cc(Nc2ncnc3ccc(NC(=O)N4CCN(C)CC4)cc23)ccc1Oc1cc2nncn2cn1` [Embodiment 10, N-(4-((4-([1,2,4]triazolo[4,3-c]pyrimidin-7-yloxy)-3-methylphenyl)amino)quinazolin-6-yl)-4-methylpiperazine-1-carboxamide], for which the IC50 was 12.6 nM at ErbB2 kinase, 143 nM at EGFR kinase, 200 nM in the assay with N87 and 92.3 nM in the assay on BT-474.
In the case of `Cc1cc(Nc2ncnc3ccc(NC(=S)NC(C)(CO)CO)cc23)ccc1Oc1cc2nncn2cn1` [Embodiment 12, 1-(4-((4-([1,2,4]triazolo[4,3-c]pyrimidin-7-yloxy)-3-methylphenyl)amino)quinazoline-6-yl)-3-(1,3-dihydroxy-2-methylpropan-2-yl)thiourea], the IC50 on ErbB2 kinase turned out to be 4.3 nM; on EGFR kinase, 231 nM; in the assay with N87 it was 482 nM; in the assay on BT-474 it was 136 nM.
For `Cc1cc(Nc2ncnc3ccc(NC4=NC(C)(CO)CO4)cc23)ccc1Oc1cc2nncn2cn1` (centres unmarked) [Embodiment 13, (2-((4-((4-([1,2,4]triazolo[4,3-c]pyrimidin-7-yloxy)-3-methylphenyl)amino)quinazolin-6-yl)amino)-4-methyl-4,5-dihydrooxazol-4-yl)methanol] the same measures were 2.6 nM, 15.2 nM, 204 nM and 47.9 nM.
Turning to `COCC(=O)NC/C=C/c1ccc2ncnc(Nc3ccc(Oc4cc5nncn5cn4)c(C)c3)c2c1` [Embodiment 14, 2-methoxy-N-((E)-3-(4-(3-methyl-4-([1,2,4]triazolo[4,3-c]pyrimidin-7-yloxy)anilino)-6-quinazolinyl)allyl)acetamide], the half-inhibitory concentration (IC50) at ErbB2 kinase turned out to be 1.7 nM; at EGFR kinase, 115 nM; with N87, 94.1 nM; in the assay with BT-474 it was 35.2 nM.
In the case of `Cc1cc(Nc2ncnc3ccc(-c4ccc(CNCCS(C)(=O)=O)o4)cc23)ccc1Oc1cc2nncn2cn1` [Embodiment 15, N-(4-([1,2,4]triazolo[4,3-c]pyrimidin-7-yloxy)-3-methylphenyl)-6-(5-(((2-(methylsulfonyl)ethyl)amino)methyl)furan-2-yl)quinazolin-4-amine], the IC50 on ErbB2 kinase was 1.2 nM; on EGFR kinase it was 14.9 nM; in the assay on N87, 33.2 nM; in the assay with BT-474, 17.4 nM.
Regarding `C=C(F)C(=O)Nc1ccc2ncnc(Nc3ccc(Oc4cc5nncn5cn4)c(C)c3)c2c1` [Embodiment 16, N-(4-((4-([1,2,4]triazolo[4,3-c]pyrimidin-7-yloxy)-3-methylphenyl)amino)quinazolin-6-yl)-2-fluoroacrylamide], the IC50 at ErbB2 kinase came out at 3.4 nM; on EGFR kinase, 32.3 nM; in the assay with N87, 5.6 nM; with BT-474, 7.7 nM.
`Cc1cc(Nc2ncnc3ccc(NC(=O)CC(C)(C)O)cc23)ccc1Oc1cc2nncn2cn1` [Embodiment 17, N-(4-((4-([1,2,4]triazolo[4,3,c]pyrimidin-7-yloxy)-3-methylphenyl)amino)quinoline-6-yl)-3-hydroxy-3-methylbutanamide]: the IC50 on ErbB2 kinase was 7.9 nM; at EGFR kinase, 80.9 nM; with N87, 712 nM; in the assay on BT-474 it was 304 nM.
On to `CC1(C)COC(Nc2ccc3ncnc(Nc4ccc(Oc5cc6nncn6cn5)c(F)c4)c3c2)=N1` [Embodiment 19, N^4-(4-([1,2,4]triazolo[4,3-c]pyrimidin-7-yloxy)-3-fluorophenyl)-N^6-(4,4-dimethyl-4,5-dihydrooxazol-2-yl)-quinazoline-4,6-diamine], for which the IC50 at ErbB2 kinase stood at 3.3 nM; on EGFR kinase, 22.1 nM; in the assay with N87 it was 125 nM; in the assay with BT-474, 98.2 nM.
In the same order, the values of `Cc1cc(Nc2ncnc3ccc(-c4ccco4)cc23)ccc1Oc1cc2nncn2cn1` [Embodiment 21, N-(4-([1,2,4]triazolo[4,3-c]pyrimidin-7-yloxy)-3-methylphenyl)-6-(furan-2-yl)-quinazolin-4-amine] are 2.2 nM, 43.5 nM, 73.8 nM and 140 nM.
On to `Cc1cc(Nc2ncnc3ccc(-c4ccc(CN5CCN(S(C)(=O)=O)CC5)o4)cc23)ccc1Oc1cc2nncn2cn1` [Embodiment 22, N-(4-([1,2,4]triazolo[4,3-c]pyrimidin-7-yloxy)-3-methylphenyl)-6-(5-((4-(methanesulfonyl)piperazin-1-yl)methyl)furan-2-yl)quinazolin-4-amine], for which the IC50 at ErbB2 kinase was 4.1 nM; at EGFR kinase, 18 nM; in the assay on N87, 35.6 nM; in the assay with BT-474, 40.7 nM.
In the case of `COc1cc2ncnc(Nc3ccc(Oc4cc5nncn5cn4)c(C)c3)c2cc1OC1CCN(C(=O)/C=C/CN(C)C)CC1` [Embodiment 23], the IC50 on ErbB2 kinase stood at 5.2 nM; at EGFR kinase, 0.7 nM; in the assay with N87, 55.7 nM; with BT-474, 79.5 nM.
`Cc1cc(Nc2ncnc3ccc(NC4=NCC(C)O4)cc23)ccc1Oc1cc2nncn2cn1` (centres unmarked) [Embodiment 24, N^4-(4-([1,2,4]triazolo[4,3-c]pyrimidin-7-yloxy)-3-methylphenyl)-N^6-(5-methyl-4,5-dihydrooxazol-2-yl)quinazoline-4,6-diamine]: the 50% inhibitory concentration (IC50) on ErbB2 kinase is 4.1 nM; on EGFR kinase, 127 nM; in the assay with N87, 177 nM; in the assay with BT-474, 128 nM.

For the origin of these results see patent publication US10828305B2 (SHANGHAI PHARMACEUTICALS HOLDING CO., LTD., priority 2016, dated 2020).
